Measurements from patent US20090215841A1, “D2 Receptor Ligand-078” (ASTRAZENECA AB, priority 2008, published 2009).

How the values were obtained:
D2S receptor = D2S receptor (Homo sapiens, UniProt P14416); assay: D2 receptor binding assay ([3H]-raclopride displacement)
Experimental: The ability of test compounds to displace ^3H-raclopride at the D2S receptor was determined on membranes from D2s-transfected CHO cells (Bmax 13 pmol/mg protein). An assay uses a standard 96-well glass fiber filter plate to retain radioligand bound by the receptor. Retained ^3H is determined in a TopCount scintillation plate counter following the addition of a liquid scintillant to each well. Compounds are evaluated for their potency using competition curve analysis, resulting in calculated Ki values.

[1] = molecular target: D2s receptor (membranes from D2s stably-transfected CHO cells) (Homo sapiens, UniProt P14416); assay: GTPγS assay, block of dopamine-stimulated [35S]-GTPγS binding
Experimental: GTPγS assay was performed substantially as described by Lazareno. […] Antagonist activity of compounds was determined by the ability of test compounds to block dopamine-stimulated [^35S]-GTPγS binding to cell membranes from D2s stably-transfected CHO cells.

Male Long-Evans rats = assay: Conditioned Avoidance Responding (CAR) assay; format: in vivo, rat; settings: for motor impairment in CAR (shock escapes): dose not stated; for efficacy in CAR (shock avoidance): rats, dosed 60 min prior to testing
Experimental: Male Long-Evans rats were trained to traverse to the opposite side of a standard shuttle cage following presentation of an auditory and visual stimulus in order to avoid delivery of electric shock to the floor of the cage. Daily sessions consisted of up to 80 trials. If shock was delivered, animals always had the opportunity to escape the shock by traversing to the opposite side of the cage. Drug was administered (via s.c. or p.o. route) 60 min prior to testing and the percentage of trials in which shock was avoided and escaped was recorded.

[2] = tested on: rat plasma prolactin levels; assay: Prolactin assay (plasma prolactin by ELISA); format: in vivo; settings: male Sprague Dawley rats, s.c., one-hour post dose
From the text: As discussed above, hyperprolactinemia is a side effect that can be observed following administration of D2 antagonists. In contrast, administration of D2 agonists to human subjects results in large reductions in prolactin levels in blood (hypoprolactinemia).
Male Sprague Dawley rats were subcutaneously administered with vehicle or test compounds. Trunk blood was collected one-hour post dose and plasma evaluated by an ELISA assay to determine prolactin levels.

[3] = tested on: D-amphetamine hyperlocomotion in habituated rats; assay: D-amphetamine-induced hyperlocomotor activity (LMA) in habituated rat model; settings: in vivo, sc, 1 mg/kg
Experimental: LMA was assessed in male Long Evans rats using a paradigm that included a habituation phase followed by administration of 1 mg/kg D-amphetamine. Animals were allowed to acclimatize to the testing room for 1 hour before being weighed and placed into activity chambers. Thirty minutes after LMA measurements began, animals were briefly removed, subcutaneously dosed with vehicle or test drug at different doses (μmol/kg), and returned to the chambers. After 30 minutes, animals were again removed and dosed with vehicle or D-amphetamine at 1 mg/kg (s.c.). After returning animals to the activity chambers, LMA was assessed for 60 minutes. […] Statistical analysis was made of total distance traveled after D-amphetamine administration using ANOVA and Tukey's post hoc analysis where appropriate. All values are expressed as Mean and SD.

CF-1 male mice = assay: Catalepsy assay, mice; format: in vivo, mouse
Experimental: (§1) CF-1 male mice or Sprague Dawley rats are dosed (via i.p., p.o. or s.c. route) with a test compound at given concentrations or a vehicle. […] The length of time (in seconds) during which each mouse maintains the initial forepaw bar position is recorded (cataleptic pose). Maximum cut-off observation time is 60 seconds. Results are expressed as means (in sec) for each dose group.

Sprague Dawley rats = assay: Catalepsy assay, rats; format: in vivo, rat
Experimental: as §1

Sequence of D2s receptor (membranes from D2s stably-transfected CHO cells) (P14416 1-414 isoform P14416-2): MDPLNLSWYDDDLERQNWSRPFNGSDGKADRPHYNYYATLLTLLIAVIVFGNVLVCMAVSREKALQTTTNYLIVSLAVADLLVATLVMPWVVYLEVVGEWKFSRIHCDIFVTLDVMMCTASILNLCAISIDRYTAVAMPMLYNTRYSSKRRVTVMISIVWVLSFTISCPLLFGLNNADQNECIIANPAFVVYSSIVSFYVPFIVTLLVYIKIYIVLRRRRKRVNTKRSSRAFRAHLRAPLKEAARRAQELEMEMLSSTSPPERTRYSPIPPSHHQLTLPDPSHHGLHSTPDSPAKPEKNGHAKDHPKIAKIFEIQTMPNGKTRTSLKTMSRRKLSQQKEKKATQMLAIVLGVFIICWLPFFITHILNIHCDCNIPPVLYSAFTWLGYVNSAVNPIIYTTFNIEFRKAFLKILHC
Sequence of D2S receptor (P14416 1-414 isoform P14416-2): as above

SMILES	Ki (D2S receptor)	IC50 [1]	motor impairment in CAR (shock escapes) (Male Long-Evans rats)	efficacy in CAR (shock avoidance) (Male Long-Evans rats)	no observable effect level (NOEL) on plasma prolactin [2]	MED, reversal of LMA [3]	catalepsy (CF-1 male mice; 30 μmol/kg)	catalepsy (CF-1 male mice; positive control)	catalepsy (Sprague Dawley rats)
CN[C@@H]1Cc2cc3nc(N)sc3cc2C1	151 nM	417 nM							
CCN(CC)[C@@H]1Cc2cc3nc(N)sc3cc2C1	21.9 nM	74.1 nM							
O=C1CCc2ccc(OCCCCN3CCN(c4cccc(Cl)c4Cl)CC3)cc2N1 [Aripiprazole]			exhibited motor impairment	effective	2.2 µmol/kg				
CCCN[C@@H]1Cc2cc3nc(N)sc3cc2C1 [Compound C3]	115 nM	437 nM	exhibited motor impairment	effective	10 µmol/kg	10 µmol/kg	exhibited catalepsy		
O=C(CCCN1CCC(O)(c2ccc(Cl)cc2)CC1)c1ccc(F)cc1 [Haloperidol]			exhibited motor impairment	effective				induced catalepsy	induced catalepsy
Cc1nc2n(c(=O)c1CCN1CCC(c3noc4cc(F)ccc34)CC1)CCCC2 [Risperidone]					0.07 µmol/kg				
